Measurements as given in publication PMC10733197, “Utilization of Rosuvastatin and Endogenous Biomarkers in Evaluating the Impact of Ritlecitinib on BCRP, OATP1B1, and OAT3 Transporter Activity” (Pharmaceutical Research, 2023).
Read-outs that look alike come from different tables or passages of the source.

Legend:
clinical = settings: human, in vivo, 10 mg
Description: Blood and urine samples were collected at prespecified timepoints. […] Each participant emptied their bladder just prior to dosing. Plasma rosuvastatin was measured using a validated UPLC-MS/MS assay, in compliance with Pfizer standard operating procedures. Samples were thawed at room temperature and vortexed. […] Samples were then placed in a methanol/ dry ice bath for 5 min. […] Dry residues were reconstituted with 200 μL of reconstitution solution (mobile phase A). After vortexing, all tubes were centrifuged at 3000 rpm for 5 min at 4 °C, and 150 μL of the reconstituted samples were transferred into the deep round well microplates and sealed by aluminum foil at 165 °C. […] Mobile phase A was Milli-Q Type Water/methanol, ammonium acetate 2 mM and mobile phase B was acetonitrile. The monitored ion transitions were m/z 483.3 → 258.2; […] The validated rosuvastatin concentration calibration range was 20 to 25000 pg/mL. Urine rosuvastatin was measured using a validated HPLC-MS/MS assay, in compliance with Pfizer standard operating procedures. […] Mobile phase A was Milli-Q® type water/methanol, ammonium acetate 2 mM and mobile phase B was acetonitrile. The monitored ion transitions were m/z 483.3 → 258.2; […] The validated rosuvastatin concentration calibration range was 5 to 2000 ng/mL. […] Samples below the lower limit of quantitation were set to zero for the PK analysis. Actual sample collection times were used for the PK analysis. Natural log transformed area under the plasma concentration-time profile from time 0 extrapolated to infinity (AUCinf), maximum plasma concentration (Cmax), and apparent renal clearance (CLr) were analyzed using a mixed effect model with treatment as a fixed effect and participant as a random effect (SAS version 9.4; SAS Institute, Cary, NC, USA). […] Rosuvastatin alone was the reference treatment, while the rosuvastatin coadministered with ritlecitinib was the Test treatment.

OATP2B1 = test system: OATP2B1; set-up: method as in PMID 27737931; settings: rosuvastatin coadministered with ronacaleret, an OATP2B1 inhibitor; cited from earlier work
[1] = set-up: method as in PMID 14693307; settings: cited from earlier work
[2] = Safety and tolerability in the clinical DDI study
Description: This was a Phase 1, 2-period fixed-sequence, multiple-dose, open-label study of the effect of ritlecitinib on the pharmacokinetics and renal clearance of a single, oral dose of rosuvastatin in healthy participants (Fig. 1). The safety and tolerability of rosuvastatin when coadministered with ritlecitinib was also evaluated.
In Period 1 on Day 1, following an overnight fast of at least 10 h, participants received a single oral administration of rosuvastatin 10 mg tablet. Period 1 was immediately followed by Period 2 with no washout. In Period 2 (coadministration), participants received oral ritlecitinib 200 mg once daily (QD) under non-fasting conditions for 7 days. On the morning of Day 8, a single dose of rosuvastatin 10 mg tablet was administered orally within approximately 5 min after administration of a ritlecitinib 200 mg dose under fasting conditions. On Days 9 and 10, participants continued to receive oral ritlecitinib 200 mg QD under non-fasting conditions.

OAT3 = target: T1, OAT3 (Homo sapiens, UniProt Q8TCC7); settings: estrone 3-sulfate 0.1 µM; HEK293; existing in vitro data; cited from earlier work
T1 construct: expressed in transfected cells; host or cells: HEK293
T1 sequence (Q8TCC7 1-542): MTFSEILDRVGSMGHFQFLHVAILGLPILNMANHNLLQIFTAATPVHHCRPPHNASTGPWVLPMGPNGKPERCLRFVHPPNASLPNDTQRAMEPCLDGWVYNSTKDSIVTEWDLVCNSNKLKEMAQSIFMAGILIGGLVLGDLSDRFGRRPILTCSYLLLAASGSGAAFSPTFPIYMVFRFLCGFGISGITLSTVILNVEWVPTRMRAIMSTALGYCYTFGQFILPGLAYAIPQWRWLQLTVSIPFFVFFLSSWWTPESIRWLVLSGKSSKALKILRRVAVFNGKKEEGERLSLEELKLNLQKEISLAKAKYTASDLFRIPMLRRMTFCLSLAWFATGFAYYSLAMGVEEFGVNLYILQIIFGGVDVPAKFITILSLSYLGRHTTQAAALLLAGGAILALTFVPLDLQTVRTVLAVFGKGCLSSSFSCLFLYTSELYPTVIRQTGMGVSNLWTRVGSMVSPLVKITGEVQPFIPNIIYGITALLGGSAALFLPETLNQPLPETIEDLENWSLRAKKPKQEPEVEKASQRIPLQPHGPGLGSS

[3] = cited from earlier work
OAT1/3 = settings: ref 1 (Rodrigues AD 2023), cited from earlier work
OAT1 = target: T2, OAT1 (Homo sapiens, UniProt Q4U2R8); settings: cited from earlier work
T2 sequence (Q4U2R8 1-563): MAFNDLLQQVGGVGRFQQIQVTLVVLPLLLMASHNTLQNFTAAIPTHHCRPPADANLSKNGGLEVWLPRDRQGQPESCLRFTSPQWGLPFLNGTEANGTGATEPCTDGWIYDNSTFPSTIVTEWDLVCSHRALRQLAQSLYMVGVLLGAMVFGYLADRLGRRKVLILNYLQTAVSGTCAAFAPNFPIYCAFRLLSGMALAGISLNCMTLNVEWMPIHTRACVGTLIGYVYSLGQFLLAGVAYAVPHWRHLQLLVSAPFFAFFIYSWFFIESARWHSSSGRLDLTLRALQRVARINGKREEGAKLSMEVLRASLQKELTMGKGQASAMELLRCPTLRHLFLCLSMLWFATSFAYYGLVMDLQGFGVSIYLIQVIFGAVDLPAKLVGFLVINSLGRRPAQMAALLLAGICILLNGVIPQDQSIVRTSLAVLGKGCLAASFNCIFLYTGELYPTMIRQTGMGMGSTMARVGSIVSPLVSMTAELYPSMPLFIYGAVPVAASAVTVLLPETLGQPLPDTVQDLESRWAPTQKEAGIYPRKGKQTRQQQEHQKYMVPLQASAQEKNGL

[4] = rosuvastatin 10 mg single dose (without ritlecitinib) or ritlecitinib 200 mg QD, 12 healthy participants

SMILES: CC(C)c1nc(N(C)S(C)(=O)=O)nc(-c2ccc(F)cc2)c1/C=C/[C@@H](O)C[C@@H](O)CC(=O)O [Rosuvastatin, rosuvastatin]
- AUC(0-inf) (clinical): 43.9 ng·h/mL
- CL renal (clinical): 218 mL/min
- CL/F (clinical): 228.0 (44) L/hr
- Cmax (clinical): 4.5 ng/mL
- Tmax (clinical): 4.01 h
- Vd/F (clinical): 6020 L
- half-life (clinical): 1160 ± 421 min
- decrease in AUCinf exposure (OATP2B1): ~50%
- excreted in urine [1]: ≤ 10%
- TEAEs of moderate severity ([2]; back pain, single dose of rosuvastatin 10 mg): 1
- number of treatment-emergent adverse events (TEAEs) [2, 4]: 4
- participants with TEAEs [2, 4]: 4
- TEAEs considered treatment-related by the investigator ([2]; rosuvastatin 10 mg single dose or ritlecitinib 200 mg QD): all of which were considered treatment-related

SMILES: CCc1nc(N)nc(N)c1-c1ccc(Cl)cc1 [Pyrimethamine]
- IC50 (OAT3): 16 µM
- Cmax,u ([3]; inhibitor dose 10 mg): 0.04 µM
- Cmax,u ([3]; inhibitor dose 25 mg): 0.11 µM
- Cmax,u ([3]; inhibitor dose 75 mg): 0.37 µM
- PDA AUC ratio Observed (OAT1/3; inhibitor dose 10 mg): 0.7
- PDA AUC ratio Observed (OAT1/3; inhibitor dose 25 mg): 0.6
- PDA AUC ratio Observed (OAT1/3; inhibitor dose 75 mg): 0.6
- IC50 (OAT1): 224 µM
